Measurements as given in patent US11555012B2 (Nimbus Artemis, Inc., priority 2018, dated 2023).
Like-named read-outs stand apart in the source and are kept apart here.

Tests used:
ACC1 = ACC1 isolated from rat, mouse, monkey and human; cited from earlier work
ACC2 = ACC2 isolated from rat, mouse, monkey and human; cited from earlier work
pyruvate carboxylase = pyruvate carboxylase (Homo sapiens (Human), UniProt P11498); conditions: cited from earlier work
[1] = target: propionyl-CoA carboxylase (Homo sapiens (Human), UniProt P05165+P05166); conditions: cited from earlier work
HepG2 cells [2] = test: ACLY HepG2 14C-Pyruvate incorporation assay with serum (IC50 Cholesterol); format: cell-based; conditions: Homo sapiens, table title: with serum, column head: serum free, 96 well
Excerpt: The protocol below was followed:
(§1) 5. […] 6. […] 7. […] 8. […] 9. Repeat the Step 8 10.

HepG2 cells [3] = test: ACLY HepG2 14C-Pyruvate incorporation assay with serum (IC50 Fatty Acid); format: cell-based; conditions: Homo sapiens, table title: with serum, column head: serum free, 96 well, read-out: ACLY HepG2 14C-Pyruvate Assay serum free IC50 FA 96 well (IC50)
Excerpt: Example 333. ACLY HepG2 ^14C-Pyruvate Incorporation Assay (IC50 Fatty Acid)
as §1

ACL [4] = target: T1, ACL (Homo sapiens (Human), UniProt P53396); test: ADP-Glo Assay
Target sequence in this assay (P53396 other isoform, or with tags, fused parts or gaps isoform P53396-2): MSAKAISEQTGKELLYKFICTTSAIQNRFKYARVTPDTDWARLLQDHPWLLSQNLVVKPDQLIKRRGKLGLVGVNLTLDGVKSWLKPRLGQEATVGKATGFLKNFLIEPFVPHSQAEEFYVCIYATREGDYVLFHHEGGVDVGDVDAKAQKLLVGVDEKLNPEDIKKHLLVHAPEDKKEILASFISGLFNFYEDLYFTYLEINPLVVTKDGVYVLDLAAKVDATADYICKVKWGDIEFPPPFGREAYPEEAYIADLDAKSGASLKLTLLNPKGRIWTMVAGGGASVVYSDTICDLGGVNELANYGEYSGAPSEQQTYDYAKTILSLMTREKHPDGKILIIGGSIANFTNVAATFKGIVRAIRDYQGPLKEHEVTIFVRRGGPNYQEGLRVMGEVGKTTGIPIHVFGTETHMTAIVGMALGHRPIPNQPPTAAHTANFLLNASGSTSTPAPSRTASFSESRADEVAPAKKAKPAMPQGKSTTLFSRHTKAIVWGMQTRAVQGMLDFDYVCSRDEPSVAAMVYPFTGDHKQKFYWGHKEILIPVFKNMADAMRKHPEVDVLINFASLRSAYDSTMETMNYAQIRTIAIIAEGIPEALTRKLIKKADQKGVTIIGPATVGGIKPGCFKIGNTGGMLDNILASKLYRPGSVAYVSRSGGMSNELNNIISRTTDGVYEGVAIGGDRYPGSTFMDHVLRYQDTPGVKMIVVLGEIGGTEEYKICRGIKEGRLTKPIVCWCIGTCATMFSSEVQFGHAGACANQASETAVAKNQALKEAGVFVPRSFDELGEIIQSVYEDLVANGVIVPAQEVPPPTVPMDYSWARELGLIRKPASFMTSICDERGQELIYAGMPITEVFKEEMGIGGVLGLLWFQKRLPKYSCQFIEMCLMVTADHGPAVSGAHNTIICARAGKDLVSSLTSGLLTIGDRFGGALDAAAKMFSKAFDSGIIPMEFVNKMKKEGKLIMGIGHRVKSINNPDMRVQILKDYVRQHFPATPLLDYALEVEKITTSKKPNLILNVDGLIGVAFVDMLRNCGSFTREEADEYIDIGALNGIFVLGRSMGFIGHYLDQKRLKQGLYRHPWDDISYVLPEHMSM

ACL [5] = target: T1, ACL; test: ACLY-MDH Coupled Assay
Target sequence in this assay (P53396 whole entry, species assumed): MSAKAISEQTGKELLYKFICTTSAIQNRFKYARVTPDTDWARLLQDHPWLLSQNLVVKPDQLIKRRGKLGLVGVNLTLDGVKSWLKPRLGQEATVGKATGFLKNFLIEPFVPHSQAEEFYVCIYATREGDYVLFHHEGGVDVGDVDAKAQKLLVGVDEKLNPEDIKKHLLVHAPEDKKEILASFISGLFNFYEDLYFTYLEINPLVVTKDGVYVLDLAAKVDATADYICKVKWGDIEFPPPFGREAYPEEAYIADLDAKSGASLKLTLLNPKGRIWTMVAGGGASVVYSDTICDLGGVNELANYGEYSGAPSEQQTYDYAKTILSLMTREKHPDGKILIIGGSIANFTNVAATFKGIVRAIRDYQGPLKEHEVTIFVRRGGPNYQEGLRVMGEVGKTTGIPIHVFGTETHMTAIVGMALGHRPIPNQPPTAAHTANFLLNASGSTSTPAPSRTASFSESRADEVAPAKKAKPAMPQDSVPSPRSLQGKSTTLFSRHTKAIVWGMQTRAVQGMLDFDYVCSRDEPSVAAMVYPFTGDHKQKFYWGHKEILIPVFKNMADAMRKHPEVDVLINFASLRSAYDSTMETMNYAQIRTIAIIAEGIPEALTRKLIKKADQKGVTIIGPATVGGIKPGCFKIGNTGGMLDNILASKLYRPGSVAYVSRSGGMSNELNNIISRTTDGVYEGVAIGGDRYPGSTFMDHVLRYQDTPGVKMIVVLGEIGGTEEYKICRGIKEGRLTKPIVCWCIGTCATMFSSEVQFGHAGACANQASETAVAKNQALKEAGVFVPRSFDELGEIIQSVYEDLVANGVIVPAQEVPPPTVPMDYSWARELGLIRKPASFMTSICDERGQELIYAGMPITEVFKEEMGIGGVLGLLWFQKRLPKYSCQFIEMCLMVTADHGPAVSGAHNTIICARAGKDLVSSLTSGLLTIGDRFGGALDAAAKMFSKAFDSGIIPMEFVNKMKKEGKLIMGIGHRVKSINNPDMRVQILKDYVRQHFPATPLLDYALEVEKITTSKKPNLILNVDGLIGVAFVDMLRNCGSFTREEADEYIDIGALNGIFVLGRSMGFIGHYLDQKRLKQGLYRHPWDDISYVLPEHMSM
Protocol: Compounds of the present invention were evaluated in an ACLY Coupled Assay.
The assay protocol for the Coupled Assay (below) was followed:
b) Add 1 μL cpds to 96 assay plate, Test cpd conc: 100/30/10 μM top dose, 3 folds dilution, 10+0+control (control: buffer without ACL+DMSO) points, 1000 rpm for 1 min, incubation at 25° C. for 60 min

HepG2 cells [6] = conditions: Homo sapiens, HepG2, read-out: ACLY HepG2 14C-Pyruvate Assay serum free IC50 FA (IC50) [μM]
Protocol: ACLY HepG2 ^14C-Pyruvate Incorporation Serum-Free Assay (IC50 Fatty
The protocol of the assay (below) was followed:
(§2) After 48 hours, change medium with fresh growth medium.
(§3) After 18 hours, replaced medium using 0.5 mL fresh medium (5.5 mM Glucose, without FBS, 1% PS, without Pyruvate) containing Compounds or 0.5% DMSO, incubated at 37° C., 5% CO2 for 1 hour.
(§4) Add 3 μci of [14C]-pyruvate per well to the cell samples were incubated at 37° C., 5% CO2 for 5 hours.
Medium was removed and placed into a 15 mL centrifuge tube. Add 0.5 mL of 0.1M NaOH to each well and then transfer the cell lysates into the corresponding 15 mL centrifuge tubes. 1.0 mL of EtOH and 0.17 mL 50% KOH were added to 15 mL tubes containing medium and cell suspensions, then shaking tube gently. […] Saponification 15 mL tubes containing medium and cell suspensions were incubated at 90° C. for 1 hour, then cooled to room temperature. […] Cholesterol Extraction 5 mL of petroleum ether was added per tube to extract Cholesterol, shaken vigorously, centrifuged at 1000 rpm for 5 min, and ˜5 mL of the petroleum ether layer was transferred to a new glass tube (18*180 mm). […] Acidification The samples in 15 mL tube were acidified directly with 1 mL concentrated HCl, make sure pH was below 1. […] Fatty Acids Extraction 5 mL of petroleum ether was added per tube, shaken vigorously, centrifuged at 1000 rpm for 5 min, 5 mL of the petroleum ether layer was transferred to the corresponding glass tube. […] Repeat the Step 8 10. Count The petroleum ether extracts were pooled and evaporated to dryness overnight. The residue from the petroleum ether fractions were resuspended in 500 μL of chloroform-hexane (1:1) containing 420 μg of linoleic acid as a carrier. Add 200 μL of resuspending (chloroform-hexane (1:1) containing 168 μg of linoleic acid) to 2 mL Ultima Gold™, after 30 min, count on a scintillation counter.

HepG2 cells [7] = conditions: Homo sapiens, HepG2, read-out: ACLY HepG2 14C-Pyruvate Assay serum free IC50 Cholesterol (IC50) [μM]
Protocol: ACLY HepG2 ^14C-Pyruvate Incorporation Serum-Free Assay (IC50 Cholesterol and Fatty Acid Synthesis)
Compounds of the present invention were evaluated in a HepG2 ^14C-pyruvate incorporation assay. The protocol below was followed:
as §2, §3, §4
Medium was removed and placed into a 15 mL centrifuge tube. Add 0.5 mL of 0.1M NaOH to each well and then transfer the cell lysates into the corresponding 15 mL centrifuge tubes. 1.0 mL of EtOH and 0.17 mL 50% KOH were added to 15 mL tubes containing medium and cell suspensions, then shaking tube gently. […] Saponification 15 mL tubes containing medium and cell suspensions were incubated at 90° C. for 1 hour, then cooled to room temperature. […] Cholesterol Extraction 5 mL of petroleum ether was added per tube to extract Cholesterol, shaken vigorously, centrifuged at 1000 rpm for 5 min, and ˜5 mL of the petroleum ether layer was transferred to a new glass tube (18*180 mm). […] Acidification The samples in 15 mL tube were acidified directly with 1 mL concentrated HCl, make sure pH was below 1. […] Fatty Acids Extraction 5 mL of petroleum ether was added per tube, shaken vigorously, centrifuged at 1000 rpm for 5 min, 5 mL of the petroleum ether layer was transferred to the corresponding glass tube. […] Count The petroleum ether extracts were pooled and evaporated to dryness overnight. The residue from the petroleum ether fractions were resuspended in 500 μL of chloroform-hexane (1:1) containing 420 μg of linoleic acid as a carrier. Add 200 μL of resuspending (chloroform-hexane (1:1) containing 168 μg of linoleic acid) to 2 mL Ultima Gold™, after 30 min, count on a scintillation counter.

[8] = target: ACLY enzyme, from S100 fraction of rat livers (Rattus norvegicus (Rat), UniProt P16638); test: rACLY S100 14C-Citrate incorporation assay (IC50 Fatty Acid synthesis); format: biochemical; conditions: rat liver S100 fraction; fatty acid labeling from 14C-citrate; read-out: rACLY S100 14C-Citrate FA IC50
Chain of ACLY enzyme, from S100 fraction of rat livers (P16638 whole entry): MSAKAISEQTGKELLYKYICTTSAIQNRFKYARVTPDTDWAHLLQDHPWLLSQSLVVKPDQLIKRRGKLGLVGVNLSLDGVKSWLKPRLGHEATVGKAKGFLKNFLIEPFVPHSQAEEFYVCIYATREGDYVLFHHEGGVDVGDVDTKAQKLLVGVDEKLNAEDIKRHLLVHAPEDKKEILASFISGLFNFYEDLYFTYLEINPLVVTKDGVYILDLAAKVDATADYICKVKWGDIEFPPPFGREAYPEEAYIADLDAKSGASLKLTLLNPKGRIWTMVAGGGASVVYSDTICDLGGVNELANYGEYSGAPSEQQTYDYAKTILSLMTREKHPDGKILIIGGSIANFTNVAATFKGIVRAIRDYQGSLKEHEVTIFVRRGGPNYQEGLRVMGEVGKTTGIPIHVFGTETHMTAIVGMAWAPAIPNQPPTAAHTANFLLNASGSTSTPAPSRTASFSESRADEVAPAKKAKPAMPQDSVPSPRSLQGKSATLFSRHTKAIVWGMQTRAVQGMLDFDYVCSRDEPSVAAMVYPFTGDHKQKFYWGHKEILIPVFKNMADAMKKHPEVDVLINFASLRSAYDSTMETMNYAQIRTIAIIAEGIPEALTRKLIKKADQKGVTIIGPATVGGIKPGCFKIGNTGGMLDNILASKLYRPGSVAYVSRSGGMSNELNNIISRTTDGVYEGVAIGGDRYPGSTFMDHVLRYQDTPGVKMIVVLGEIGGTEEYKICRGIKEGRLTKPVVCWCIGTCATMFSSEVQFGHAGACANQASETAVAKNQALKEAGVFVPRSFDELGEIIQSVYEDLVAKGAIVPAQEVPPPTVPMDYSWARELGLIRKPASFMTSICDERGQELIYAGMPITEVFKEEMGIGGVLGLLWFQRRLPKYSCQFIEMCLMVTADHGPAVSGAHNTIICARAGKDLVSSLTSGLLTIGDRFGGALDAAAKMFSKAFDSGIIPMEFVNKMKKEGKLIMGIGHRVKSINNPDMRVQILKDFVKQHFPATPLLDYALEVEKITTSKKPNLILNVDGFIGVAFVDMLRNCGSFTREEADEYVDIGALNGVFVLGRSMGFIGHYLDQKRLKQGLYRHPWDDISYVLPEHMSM
Excerpt: Example 336. rACLY S100 ^14C-Citrate Incorporation Assay (IC50 Fatty Acid Synthesis)
Cell-free preparations of liver can synthesize long-chain fatty acids through a pathway which includes the formation of malonyl co-enzyme A (CoA) from acetyl CoA and CO2. The ACLY enzyme, from S100 fraction of rat livers, can transfer CoA, ATP and Citrate to acetyl-CoA, which is the precursor of fatty acid synthesis. Addition of ^14C-citrate to the S100 fraction enables fatty acid labeling from the ACLY reaction, and thus, the effect of ACLY inhibition can be measured in these preparations.
S100 fractions from rat livers were prepared in order to study the effect of ACLY inhibition on fatty acid synthesis using ^14C-citrate as the radiolabel. Fresh livers were excised and quickly homogenized using a 15 ml dounce homogenizer (D9188-1SET from Sigma) in 1 volume of assay buffer containing 0.25 M sucrose, 1 mM potassium citrate, and protease inhibitor cocktail. Homogenates were centrifuged at 20,000×g for 20 min at 4° C. The supernatant was centrifuged at 100,000×g for 2 hours at 4° C. This fraction is S100. For compound addition, 17.5 μL of compound at the desired concentration was added to 350 μL of S100 fraction solution (derived from 0.5 g fresh liver) in 15 mL centrifuge tubes and exposed to air at 37° C. for 30 min. Radiolabeled [^14C]-citrate (60 μL, 3 μCi) was added per tube, plus 40 μL reaction buffer and 3032.5 μL substrate buffer (diluted with reaction buffer, final conc.: 1 mM ATP, 60 μM CoA, 100 μM non-radiolabeled citrate, 0.5% DMSO). Total reaction volume equaled 3.5 mL and was mixed at 37° C. for 2 hours. At the end of the reaction, each sample was saponified at 70° C. for 120 minutes in 1.5 mL of 2.5M NaOH, then cooled to room temperature. Ethanol (2.5 mL) was added to the tubes, and the solution was mixed and allowed to stand overnight. […] Next, samples were acidified in 15 mL tubes directly with 0.6 mL concentrated HCl, to ensure pH<1. Fatty acids were extracted by adding 5 mL of petroleum ether per tube, the tubes were shaken vigorously, then centrifuged at 1000 rpm for 5 min. […]

[9] = read-out: ACL-ADP-Glo (IC50), 3 nM ACL, 15 μM ATP, 3 μM CoA, 300 μM Citrate
[10] = read-out: ACL-MDH Coupled Assay (IC50), 8 nM ACL, 60 μM CoA Na2, 85 μM Citrate, 250 μM ATP, 250 μM NADH

Chain of pyruvate carboxylase (P11498 21-1178): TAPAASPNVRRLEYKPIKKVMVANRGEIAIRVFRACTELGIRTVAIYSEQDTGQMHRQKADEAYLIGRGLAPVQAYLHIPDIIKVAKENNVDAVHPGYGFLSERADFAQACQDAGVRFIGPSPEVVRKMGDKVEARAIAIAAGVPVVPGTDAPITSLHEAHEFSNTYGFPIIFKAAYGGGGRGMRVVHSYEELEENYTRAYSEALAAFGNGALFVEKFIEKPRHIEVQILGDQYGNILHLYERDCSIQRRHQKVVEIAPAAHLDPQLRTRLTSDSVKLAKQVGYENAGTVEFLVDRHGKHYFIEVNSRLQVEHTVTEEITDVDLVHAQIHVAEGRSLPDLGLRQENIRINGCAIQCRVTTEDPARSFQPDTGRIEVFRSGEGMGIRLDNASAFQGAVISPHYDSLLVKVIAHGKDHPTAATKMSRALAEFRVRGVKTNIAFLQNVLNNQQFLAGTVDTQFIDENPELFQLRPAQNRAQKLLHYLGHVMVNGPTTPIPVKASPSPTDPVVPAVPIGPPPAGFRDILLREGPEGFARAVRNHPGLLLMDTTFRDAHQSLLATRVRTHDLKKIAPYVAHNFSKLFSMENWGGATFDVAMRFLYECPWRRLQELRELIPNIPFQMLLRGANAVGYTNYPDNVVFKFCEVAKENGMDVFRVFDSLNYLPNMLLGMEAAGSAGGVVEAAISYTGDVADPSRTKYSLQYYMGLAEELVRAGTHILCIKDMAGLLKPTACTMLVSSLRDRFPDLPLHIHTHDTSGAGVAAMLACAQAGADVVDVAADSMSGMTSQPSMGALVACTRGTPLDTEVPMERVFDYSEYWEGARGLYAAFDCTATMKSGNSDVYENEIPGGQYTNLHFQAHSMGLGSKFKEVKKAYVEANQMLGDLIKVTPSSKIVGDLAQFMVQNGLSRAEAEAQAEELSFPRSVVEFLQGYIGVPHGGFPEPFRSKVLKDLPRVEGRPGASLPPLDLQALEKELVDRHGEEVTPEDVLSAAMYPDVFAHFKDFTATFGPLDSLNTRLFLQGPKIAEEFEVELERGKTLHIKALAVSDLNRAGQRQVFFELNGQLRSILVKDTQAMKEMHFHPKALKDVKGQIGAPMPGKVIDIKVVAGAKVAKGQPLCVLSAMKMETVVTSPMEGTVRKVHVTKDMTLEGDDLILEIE

| IC50 (HepG2 cells [2]) [nM] | IC50 (HepG2 cells [3]) [nM] | IC50 (ACL [4]) [nM] | IC50 (ACL [5]) [nM] | IC50 (HepG2 cells [6]) [µM] | IC50 (HepG2 cells [7]) [µM] | IC50 [8] [nM] | IC50 (ACL [4]; [9]) [nM] | IC50 (ACL [5]; [10]) [nM] | Compound | IC50 (ACC1) [nM] | IC50 (ACC2) [nM] | inhibition of pyruvate carboxylase (pyruvate carboxylase) | inhibition of propionyl-CoA carboxylase [1] |
| --- | --- | --- | --- | --- | --- | --- | --- | --- | --- | --- | --- | --- | --- |
| 1000 to 5000 | 5000 to 20000 | 50 to 500 | 50 to 500 | 1 to 10 | 1 to 5 | – | – | – | Cc1cc(Cl)c(O)c(S(=O)(=O)Nc2cc(-c3ccccc3)c(F)cc2F)c1 [I-157, 3-chloro-N-(4,6-difluoro-[1,1′-biphenyl]-3-yl)-2-hydroxy-5-methylbenzenesulfonamide] | – | – | – | – |
| < 1000 | 1000 to 5000 | 50 to 500 | < 50 | 1 to 10 | < 1 | 1000 to 5000 | – | – | O=S(=O)(Nc1cc(-c2ccccc2)ccc1F)c1cc(Cl)cc(Cl)c1O [I-22, 3,5-dichloro-N-(2-fluoro-5-phenylphenyl)-2-hydroxybenzene-1-sulfonamide] | – | – | – | – |
| < 1000 | 1000 to 5000 | – | – | 1 to 10 | < 1 | – | < 50 | < 50 | O=S(=O)(Nc1cc(-c2ccccc2)c(F)cc1F)c1cc(-c2cncs2)cc(Cl)c1O [I-123, 3-chloro-N-(4,6-difluoro-[1,1′-biphenyl]-3-yl)-2-hydroxy-5-(thiazol-5-yl)benzenesulfonamide] | – | – | – | – |
| – | – | – | 50 to 500 | 1 to 10 | 1 to 5 | – | < 50 | – | COC(=O)c1cc(Cl)c(O)c(S(=O)(=O)Nc2cc(-c3ccccc3)c(F)cc2F)c1C [I-126, Methyl 5-chloro-3-([4,6-difluoro-[1,1-biphenyl]-3-yl]sulfamoyl)-4-hydroxy-2-methylbenzoate] | – | – | – | – |
| – | – | 50 to 500 | 50 to 500 | 1 to 10 | 1 to 5 | – | – | – | O=C(O)c1cc(F)c(-c2ccccc2)cc1NS(=O)(=O)c1cc(Cl)cc(Cl)c1 [I-287, 5-((3,5-dichlorophenyl)sulfonamido)-2-fluoro-[1,1′-biphenyl]-4-carboxylic Acid] | – | – | – | – |
| – | – | – | – | > 10 | 1 to 5 | – | < 50 | < 50 | O=C(c1cc(Cl)c(O)c(S(=O)(=O)Nc2cc(-c3ccccc3)c(F)cc2F)c1)N1CCCC1 [I-82, 3-chloro-N-(4,6-difluoro-[1,1′-biphenyl]-3-yl)-2-hydroxy-5-(pyrrolidine-1-carbonyl)benzenesulfonamide] | – | – | – | – |
| < 1000 | 1000 to 5000 | – | – | 1 to 10 | < 1 | – | < 50 | < 50 | CCOC(=O)c1cc(Cl)c(O)c(S(=O)(=O)Nc2cc(-c3ccccc3)c(F)cc2F)c1 [I-84, ethyl 3-chloro-5-[(2,4-difluoro-5-phenylphenyl)sulfamoyl]-4-hydroxybenzoate] | – | – | – | – |
| – | – | 50 to 500 | < 50 | > 10 | 1 to 5 | – | – | – | O=S(=O)(Nc1cc(-c2ccccc2)ccc1F)c1cc(Br)cc(Cl)c1O [I-34, 5-bromo-3-chloro-N-(2-fluoro-5-phenylphenyl)-2-hydroxybenzene-1-sulfonamide] | – | – | – | – |
| – | – | – | – | 1 to 10 | 1 to 5 | – | < 50 | < 50 | COC(=O)c1cc(Cl)c(O)c(S(=O)(=O)Nc2cc(-c3ccccc3)ccc2F)c1 [I-47, Methyl 3-chloro-5-(N-(4-fluoro-[1,1′-biphenyl]-3-yl)sulfamoyl)-4-hydroxybenzoate] | – | – | – | – |
| – | – | – | – | > 10 | < 1 | – | < 50 | < 50 | CCC(=O)c1cc(Cl)c(O)c(S(=O)(=O)Nc2cc(-c3ccccc3)c(F)cc2F)c1 [I-101, 3-chloro-N-(2,4-difluoro-5-phenylphenyl)-2-hydroxy-5-propanoylbenzene-1-sulfonamide] | – | – | – | – |
| – | – | – | – | 1 to 10 | 1 to 5 | 1000 to 5000 | < 50 | < 50 | COc1cc(F)c(-c2cc3ccccc3s2)cc1NS(=O)(=O)c1cc(C(=O)N2CCC2)cc(Cl)c1O [I-286] | – | – | – | – |

The next lines start with the compound.

| Compound | IC50 (HepG2 cells [2]) [nM] | IC50 (HepG2 cells [3]) [nM] | IC50 (ACL [4]) [nM] | IC50 (ACL [5]) [nM] | IC50 (HepG2 cells [6]) [µM] | IC50 (HepG2 cells [7]) [µM] | IC50 [8] [nM] | IC50 (ACL [4]; [9]) [nM] | IC50 (ACL [5]; [10]) [nM] | IC50 (ACC1) [nM] | IC50 (ACC2) [nM] | inhibition of pyruvate carboxylase (pyruvate carboxylase) | inhibition of propionyl-CoA carboxylase [1] |
| --- | --- | --- | --- | --- | --- | --- | --- | --- | --- | --- | --- | --- | --- |
| O=C(c1c2ccccc2cc2ccccc12)N1CCC(N2CCC[C@@H](C(=O)N3CCOCC3)C2)CC1 [CP-640186] | – | – | – | – | – | – | – | – | – | ~60 | ~60 | without inhibiting | without inhibiting |
| O=C(O)c1ccc(-c2ccccc2)cc1NS(=O)(=O)c1cc(Cl)cc(C(F)(F)F)c1 [I-220, 3-((3-chloro-5-(trifluoromethyl)phenyl)sulfonamido)-[1,1′-biphenyl]-4-carboxylic acid] | 1000 to 5000 | 1000 to 5000 | 50 to 500 | 50 to 500 | 1 to 10 | 1 to 5 | – | – | – | – | – | – | – |
| O=C(Nc1cc(-c2ccccc2)c(F)cc1C(=O)O)c1cc(Cl)cc(Cl)c1 [I-318, 5-(3,5-dichlorobenzamido)-2-fluoro-[1,1′-biphenyl]-4-carboxylic Acid] | – | – | 500 to 20000 | 500 to 30000 | 1 to 10 | 1 to 5 | 5000 to 20000 | – | – | – | – | – | – |
| COc1c(Cl)cc(Cl)cc1S(=O)(=O)Nc1cc(-c2ccccc2)ccc1C(=O)O [I-281, 3-((3,5-dichloro-2-methoxyphenyl)sulfonamido)-[1,1′-biphenyl]-4-carboxylic Acid] | – | – | 50 to 500 | 50 to 500 | 1 to 10 | 1 to 5 | – | – | – | – | – | – | – |
| O=S(=O)(Nc1ccccc1OCc1ccccc1)c1cc(Cl)cc(Cl)c1O [I-15, N-(2-(benzyloxy)phenyl)-3,5-dichloro-2-hydroxybenzenesulfonamide] | – | – | 500 to 20000 | 500 to 30000 | 1 to 10 | 1 to 5 | – | – | – | – | – | – | – |
| N#Cc1cc(Cl)c(O)c(S(=O)(=O)Nc2cc(-c3ccccc3)ccc2F)c1 [I-31, 3-chloro-5-cyano-N-(4-fluoro-[1,1′-biphenyl]-3-yl)-2-hydroxybenzenesulfonamide] | – | – | – | 50 to 500 | > 10 | 1 to 5 | – | < 50 | – | – | – | – | – |
| Cc1cc(C(=O)O)c(NS(=O)(=O)c2cc(Cl)cc(C(F)(F)F)c2)cc1-c1ccccc1 [I-364, 5-((3-chloro-5-(trifluoromethyl)phenyl)sulfonamido)-2-methyl-[1,1′-biphenyl]-4-carboxylic Acid] | – | – | 500 to 20000 | 500 to 30000 | 1 to 10 | 1 to 5 | – | – | – | – | – | – | – |
| O=S(=O)(Nc1cc(-c2ccccc2)ccc1F)c1cc(Br)ccc1O [I-113, N5-bromo-N-(2-fluoro-5-phenylphenyl)-2-hydroxybenzene-1-sulfonamide] | – | – | 500 to 20000 | 500 to 30000 | 1 to 10 | 1 to 5 | – | – | – | – | – | – | – |
| O=S(=O)(Nc1cc(-c2ccccc2)ccc1F)c1cc(Cl)cc(Br)c1O [I-23, 3-bromo-5-chloro-N-(4-fluoro-[1,1′-biphenyl]-3-yl)-2-hydroxybenzenesulfonamide] | – | – | 50 to 500 | < 50 | 1 to 10 | 1 to 5 | – | – | – | – | – | – | – |
